In patent US8053437B2, “Furo[3. 2-B] pyrrol derivatives” (Amura Therapeutics Limited, priority 2006, dated 2011):

Assays:
[1] = molecular target: T1, Human recombinant cathepsin K (Homo sapiens, UniProt P43235); assay: In vitro cathepsin Ki inhibition measurements; type: biochemical; conditions: read-out: In vitro Ki (nM) vs Cath K
T1 construct: purchased B. Turk, Josef, Stefan Institute, Ljubljana, Slovenia
T1 sequence (P43235 115-329): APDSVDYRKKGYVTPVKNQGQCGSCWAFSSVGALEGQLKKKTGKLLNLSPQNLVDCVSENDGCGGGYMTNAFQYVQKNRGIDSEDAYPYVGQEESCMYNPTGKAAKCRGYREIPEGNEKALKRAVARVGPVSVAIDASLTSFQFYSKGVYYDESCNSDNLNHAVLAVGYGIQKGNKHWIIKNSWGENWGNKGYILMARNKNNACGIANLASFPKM
Procedure: Stock solutions of substrate or inhibitor were made up to 10 mM in 100% dimethylsulfoxide (DMSO) (Rathburns, Glasgow, U.K.) and diluted as appropriately required. In all cases the DMSO concentration in the assays was maintained at less than 1% (vol./vol.). The equilibrium inhibition constants (Ki^ss) for each compound were measured under steady-state conditions monitoring enzyme activity as a function of inhibitor concentration. The values were calculated on the assumption of pure competitive behaviour (Cornish-Bowden, A. Fundamentals of enzyme kinetics Portland Press; 1995, 93-128.). Human recombinant cathepsin K (0.25 nM final; B. Turk, Josef, Stefan Institute, Ljubljana, Slovenia), was routinely assayed in 100 mM sodium acetate; pH 5.5 containing 1 mM EDTA, 10 mM L-cysteine and 1.8 μM Z-Leu-Arg-AMC ([S]=KM).
The apparent inhibition constant (Ki) for each compound was determined on the basis that inhibition was reversible and occurred by a pure-competitive mechanism. The Ki values were calculated, from the dependence of enzyme activity as a function of inhibitor concentration, by direct regression analysis (Prism v 3.02) using Equation 2 (Cornish-Bowden, A., 1995).
In situations where the apparent dissociation constant (Ki^app) approached the enzyme concentrations, the Ki^app values were calculated using a quadratic solution in the form described by Equation 3 (Morrison, J. F. Trends Biochem. Sci., 7, 102-105, 1982; Morrison, J. F. Biochim. Biophys. Acta, 185, 269-286, 1969; Stone, S. R. and Hofsteenge, J. Biochemistry, 25, 4622-4628, 1986).
In Equation 3 ‘vi’ is the observed residual activity, ‘F’ is the difference between the maximum activity (i.e. in the absence of inhibitor) and minimum enzyme activity, ‘Eo’ is the total enzyme concentration, ‘Ki^app’ is the apparent dissociation constant and ‘Io’ is the inhibitor concentration. Curves were fitted by non-linear regression analysis (Prism) using a fixed value for the enzyme concentration. Equation 4 was used to account for the substrate kinetics, where ‘Ki’ is the inhibition constant, ‘[So]’ is the initial substrate concentration and ‘KM^app’ is the apparent macroscopic binding (Michaelis) constant for the substrate (Morrison, 1982).

[2] = tested on: human osteoclasts; assay: Human osteoclast resorption assay; conditions: human osteoclast activity, read-out: Cell-based % Inh. @ 1 μM Human
Procedure: Bone resorption was studied using a model where human osteoclast precursor cells were cultured on bovine bone slices for 9 days and allowed to differentiate into bone-resorbing osteoclasts. The formed mature osteoclasts were then allowed to resorb bone. The assay was performed by Pharmatest Services Ltd, ItAinen Pitkakatu 4C, Turku, Finland. After the culture period, bone collagen degradation products were quantified from the culture medium as an index of bone resorption. Inhibitor compounds were added into the cell cultures after the differentiation period and their effects on the resorbing activity of mature osteoclasts were determined. The studies included a baseline group without added compounds and a positive control group where a potent cathepsin K inhibitor E-64 was added.
Human peripheral blood monocytes were suspended to culture medium and allowed to attach to bovine bone slices. The bone slices were transferred into 96-well tissue culture plates containing culture medium with appropriate amounts of important growth factors favouring osteoclast differentiation, including M-CSF, RANK-ligand and TGF-β. The cells were incubated in a CO2 incubator in humidified atmosphere of 95% air and 5% carbon dioxide at 37° C. At day 7 when osteoclast differentiation was complete, the culture medium was replaced with culture medium containing conditions favouring osteoclast activity. The cell culture was continued for an additional 2 days, during which the formed mature osteoclasts were allowed to resorb bone in the presence of vehicle, control inhibitor (E64) or test compounds. At the end of the culture, bone collagen degradation products released into the culture medium were determined using a commercially available ELISA method (CrossLaps® for culture, Nordic Bioscience, Herlev, Denmark) as an index of bone resorption (see Bagger, Y. Z., et al, J. Bone. Miner. Res. 14 (suppl. 1), S370).

[3] = tested on: rat osteoclasts; assay: Rat osteoclast resorption assay; conditions: read-out: Cell-based % Inh. @ 1 μM Rat
Procedure: Bone resorption was studied using a model where mature osteoclasts derived from rat bone were cultured on bovine bone slices for 3 days and allowed to resorb bone in the presence of inhibitor, positive control (E-64) or vehicle. More specifically, tibia, femori and humeri were removed from 1 day old rat pups. The endosteal surfaces of the bones were scraped with a scapelto release osteoclasts into the culture medium and the osteoclasts were allowed to attach to bovine bone slices. After the culture period, bone collagen degradation products were quantified from the culture medium as an index of bone resorption. The assay was performed by Pharmatest Services Ltd, Itilinen Pitkakatu 4C, Turku, Finland.

[4] = Plasma incubations (human plasma stability); type: in vitro ADME; conditions: 37° C.
Procedure: Human and rat plasma were purchased from Innovative Research Inc. (Southfield. MI, USA). Compounds were taken from 5 mM DMSO stock solutions and added to plasma, which had previously been incubated at 37° C., to give a final concentration of 25 μM and re-incubated. Aliquots were removed at 2 and 60 minutes and quenched with an equal volume of cold acetonitrile. After mixing vigorously, the precipitated protein matter was removed by filtration (Multiscreen Solvinert filter plates, Millipore, Bedford, Mass., USA) and the filtrate analysed by reverse phase HPLC with mass spectrometric detection, using single ion monitoring of the [M+H]^+ species. Metabolic turnover was determined by comparison of peak areas from the ion chromatograms of the parent compound at 2 and 60 minutes and expressed as percent remaining at 1 hour: […]

[5] = Liver microsomal incubations (HLM stability); type: in vitro ADME; conditions: human liver microsomes
Procedure: Human and rat liver microsomes were purchased from BD Gentest (Woburn, Mass., USA) and β-nicotinamide adenine dinucleotide 2′-phosphate reduced tetrasodium salt (NADPH) was purchased from Sigma-Aldrich (Poole, Dorset, UK). All liver microsome incubations were carried out in 50 mM potassium phosphate buffer at pH 7.4, with a final microsomal protein concentration of 0.5 mg/mL. Compounds were taken from 5 mM DMSO stock solutions and diluted in incubation buffer to give a final concentration of […] with a final DMSO concentration of 0.5% v/v. In brief, compounds were added to the incubation buffer along with the liver microsomes and incubated at 37° C. for 10 minutes. The reaction was then initiated by the addition of NADPH, previously dissolved in incubation buffer, to give a final concentration of 1 mM and re-incubated at 37° C. Aliquots were removed at 2 and 60 minutes and quenched with an equal volume of cold acetonitrile. After mixing vigorously, the precipitated protein matter was removed by filtration (Multiscreen Solvinert filter plates, Millipore, Bedford, Mass., USA) and the filtrate analysed by reverse phase HPLC with mass spectrometric detection, using single ion monitoring of the [M+H]^+ species. Metabolic turnover was determined by comparison of peak areas from the ion chromatograms of the parent compound at 2 and 60 minutes and expressed as percent remaining at 1 hour.

[6] = LogD determinations (shake-flask, octanol/PBS); type: physicochemical; conditions: 1-octanol/phosphate buffered saline; pH 7.4; ion-count method
Procedure: LogD(PBS) determinations were performed in 96 well microtitre plates using a miniaturised “shake-flask” method. In brief, compounds were taken from 10 mM DMSO stock solutions and added to wells containing equal volumes of phosphate buffered saline (10 mM; pH 7.4) (PBS) and 1-octanol (Sigma-Aldrich, Poole, Dorset, UK) to give a final concentration of 50 μM. The plates were then capped and mixed vigorously for 1 hour on a microtitre plate shaker, after which they were left to stand, allowing the PBS and octanol phases to separate. The PBS layer was analysed by reverse phase HPLC with mass spectrometric detection, using single ion monitoring of the [M+H]^+ species. LogD(PBS) was determined by comparison of the peak area from the ion chromatogram of the compound in the PBS phase with that of a 50 μM standard of the same compound dissolved in acetonitrile/water (50:50) and calculated using the following formula: […]
Where AUCstd and AUCpbs are the peak areas from the standard and test ion chromatograms respectively.

[7] = tested on: human osteoclasts; conditions: human osteoclast, literature value; cited from earlier work

Compound	Ki [1] [nM]	inhibition at 1 µM [2] [%]	inhibition at 1 µM [3] [%]	Human Plasma Stability % rem. @ 1 hr [4] [%]	HLM % rem. @ 1 hr [5] [%]	logD [6]	Cell-based % Inh. @ 1 μM Human (Lit.) [7]
CCC(C)[C@H](NC(=O)c1ccc(N2CCN(C)CC2)cc1)C(=O)N1CC[C@H]2OCC(=O)[C@H]21 (stereo in doubt) [Example 9, N-((2S,3S)-3-methyl-1-oxo-1-((3aS,6aR)-3-oxodihydro-2H-furo [3,2-b]pyrrol-4(5H,6H,6aH)-yl)pentan-2-yl)-4-(4-methylpiperazin-1-yl)benzamide]	5	77	10	91	94	1.15	–
CC(C)C[C@H](NC(=O)c1ccc(N2CCN(C)CC2)cc1)C(=O)N1CC[C@H]2OCC(=O)[C@H]21 [Example 1, reference compound]	–	55	43	95	95	–	–
CCN1CCN(c2ccc(C(=O)N[C@@H](CC(C)C)C(=O)N3CC[C@H]4OCC(=O)[C@H]43)cc2)CC1 [Example 2, 4-(4-ethylpiperazin-1-yl)-N—((S)-4-methyl-1-oxo-1-((3aS,6aR)-3-oxodihydro-2H-furo[3,2-b]pyrrol-4(5H,6H,6aH)-yl)pentan-2-yl)benzamide, reference compound]	–	58	40	93	88	–	–
CN1CCN(c2ccc(C(=O)N[C@@H](CC(C)(C)C)C(=O)N3CC[C@H]4OCC(=O)[C@H]43)cc2)CC1 [Example 3, N—((S)-4,4-dimethyl-1-oxo-1-((3aS,6aR)-3-oxo-dihydro-2H-furo[3,2-b]pyrrol-4(5H,6H,6aH)-yl)pentan-2-yl)-4-(4-methylpiperazin-1-yl)benzamide]	4	79	75	95	96	0.87	–
CCCN1CCN(c2ccc(C(=O)N[C@@H](CC(C)(C)C)C(=O)N3CC[C@H]4OCC(=O)[C@H]43)cc2)CC1 [Example 4, N—((S)-4,4-dimethyl-1-oxo-1-((3aS,6aR)-3-oxo-dihydro-2H-furo[3,2-b]pyrrol-4(5H,6H,6aH)-yl)pentan-2-yl)-4-(4-propylpiperazin-1-yl)benzamide]	12	75	72	92	82	1.87	–
COCCN1CCN(c2ccc(C(=O)N[C@@H](CC(C)(C)C)C(=O)N3CC[C@H]4OCC(=O)[C@H]43)cc2)CC1 [Example 5, N—((S)-4,4-dimethyl-1-oxo-1-((3aS,6aR)-3-oxo-dihydro-2H-furo[3,2-b]pyrrol-4(5H,6H,6aH)-yl)pentan-2-yl)-4-(4-(2-methoxyethyl)piperazin-1-yl)benzamide]	14	72	79	90	92	1.51	–
CN1CCN(c2ccc(C(=O)N[C@H](C(=O)N3CC[C@H]4OCC(=O)[C@H]43)C(C)(C)C)cc2)CC1 [Example 8, N—((S)-3,3-dimethyl-1-oxo-1-((3aS,6aR)-3-oxo-dihydro-2H-furo[3,2-b]pyrrol-4(5H,6H,6aH)-yl)butan-2-yl)-4-(4-methylpiperazin-1-yl)benzamide]	6	82	20	93	89	0.81	–
CC(C)C[C@H](NC(=O)c1ccc(C(C)(C)C)cc1)C(=O)N1CC[C@H]2OCC(=O)[C@H]21 [Prior art compound 23, reference compound]	–	–	–	75	70	–	Lit. 60%
